Literature values in patent US20170274058A1, “Cancer Stem Cell-Targeted Cancer Therapy” (priority 2006, published 2017).
Where a name gives a salt, the structure may show the parent alone.

Test system: cancer stem cells, including leukemia stem cells
Details: background statement, references in Table 1

Row | SMILES | resistance of cancer stem cells to the therapy
1 | Nc1ccn([C@@H]2O[C@H](CO)[C@@H](O)[C@@H]2O)c(=O)n1 [Ara-C, cytarabine] | relatively resistant
2 | Cc1ccc(NC(=O)c2ccc(CN3CCN(C)CC3)cc2)cc1Nc1nccc(-c2cccnc2)n1 [Gleevec®, imatinib mesylate] | relatively resistant
3 | CC(C)C[C@H](NC(=O)[C@H](Cc1ccccc1)NC(=O)c1cnccn1)B(O)O [Velcade®] | relatively resistant
4 | COc1cccc2c1C(=O)c1c(O)c3c(c(O)c1C2=O)C[C@@](O)(C(C)=O)C[C@@H]3O[C@H]1C[C@H](N)[C@H](O)[C@H](C)O1 [daunorubicin] | relatively resistant
